Measured values as given in patent US12077503B2, “Substituted cyclic amides and their use as herbicides” (FMC CORPORATION, priority 2015, dated 2024).

What was measured:
Assay type in all cases: in vivo
[1] = tested on: sedge, umbrella (small-flower umbrella sedge, Cyperus difformis); experiment: Test B flooded paddy test; details: Cyperus difformis, 250 g ai/ha, Flood; 0 to 100 scale where 0 is no effect and 100 is complete control; read-out: Sedge, Umbrella plant response rating
Summary of the method: (§1)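 Plants at 2-leaf stage flooded to 3 cm above soil, with compounds applied directly to paddy water and that depth maintained. Plants kept in greenhouse 13–15 d. Visual rating versus controls on a 0 (no effect) to 100 (complete control) scale.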

rice (Oryra sativa) = experiment: Test B flooded paddy test; details: Oryza sativa, 250 g ai/ha, Flood; 0 to 100 scale where 0 is no effect and 100 is complete control; read-out: Rice plant response rating
Summary of the method: as §1

[2] = tested on: ducksalad (Heteranthera limosa); experiment: Test B flooded paddy test; details: Heteranthera limosa, 250 g ai/ha, Flood; 0 to 100 scale where 0 is no effect and 100 is complete control; read-out: Ducksalad plant response rating
Summary of the method: as §1

[3] = tested on: barnyardgrass (Echinochloa crus-galli); experiment: Test B flooded paddy test; details: Echinochloa crus-galli, 250 g ai/ha, Flood; 0 to 100 scale where 0 is no effect and 100 is complete control; read-out: Barnyardgrass plant response rating
Summary of the method: as §1

[4] = tested on: wheat (Triticum aestivum); experiment: Test A postemergence; details: Triticum aestivum, post-emergence, 240 h; for plant injury at 125 g/ha: 125 g ai/ha, postemergence, visual injury on 0 to 100 scale (0 no effect, 100 complete control), approx. 10 d, read-out: Wheat plant response rating; for plant injury at 31 g/ha: Postemergence, 31 g ai/ha, visual injury after approx. 10 d, 0 to 100 scale, 0 no effect, 100 complete control, read-out: Plant response rating, Wheat
Summary of the method: (§2)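 Preemergence directed soil spray on seeded pots, or postemergence application to plants 2–10 cm, one- to two-leaf. Solvent mixture non-phytotoxic, with surfactant. Scored ~10 d later, visually, 0–100 vs untreated.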

corn (Zea mays) = experiment: Test A postemergence; details: Zea mays, post-emergence, 240 h; for plant injury at 125 g/ha: 125 g ai/ha, postemergence, visual injury on 0 to 100 scale (0 no effect, 100 complete control), approx. 10 d, read-out: Corn plant response rating; for Corn plant response rating (crop injury, 0 = no effect, 100 = complete kill) at 31 g/ha: Postemergence, 31 g ai/ha, visual injury after approx. 10 d, 0 to 100 scale, 100 complete control
Summary of the method: as §2

[5] = tested on: blackgrass (Alopecurus myosuroides); experiment: Test A postemergence; details: Alopecurus myosuroides, post-emergence, 240 h; for pest or weed control at 125 g/ha: 125 g ai/ha, postemergence, visual injury on 0 to 100 scale (0 no effect, 100 complete control), approx. 10 d, read-out: Blackgrass plant response rating; for pest or weed control at 31 g/ha: Postemergence, 31 g ai/ha, visual injury after approx. 10 d, 0 to 100 scale, 0 no effect, 100 complete control, read-out: Plant response rating, Blackgrass
Summary of the method: as §2

[6] = tested on: pigweed (Amaranthus retroflexus); experiment: Test A postemergence; details: Amaranthus retroflexus, post-emergence, 240 h; for pest or weed control at 125 g/ha: 125 g ai/ha, postemergence, visual injury on 0 to 100 scale (0 no effect, 100 complete control), approx. 10 d, read-out: Pigweed plant response rating; for pest or weed control at 31 g/ha: Postemergence, 31 g ai/ha, visual injury after approx. 10 d, 0 to 100 scale, 0 no effect, 100 complete control, read-out: Plant response rating, Pigweed
Summary of the method: as §2

[7] = tested on: giant foxtail (Setaria faberii); experiment: Test A postemergence; details: Setaria faberi, post-emergence, 240 h; for pest or weed control at 125 g/ha: 125 g ai/ha, postemergence, visual injury on 0 to 100 scale (0 no effect, 100 complete control), approx. 10 d, read-out: Foxtail, Giant plant response rating; for pest or weed control at 31 g/ha: Postemergence, 31 g ai/ha, visual injury after approx. 10 d, 0 to 100 scale, 0 no effect, 100 complete control, read-out: Plant response rating, Foxtail, Giant
Summary of the method: as §2

Kochia (Kochia scoparia) [8] = experiment: Test A postemergence; details: Bassia scoparia, post-emergence, 240 h; for pest or weed control at 125 g/ha: 125 g ai/ha, postemergence, visual injury on 0 to 100 scale (0 no effect, 100 complete control), approx. 10 d, read-out: Kochia plant response rating; for pest or weed control at 31 g/ha: Postemergence, 31 g ai/ha, visual injury after approx. 10 d, 0 to 100 scale, 0 no effect, 100 complete control, read-out: Plant response rating, Kochia
Summary of the method: as §2

[9] = tested on: Galium (catchweed bedstraw, Galium aparine); experiment: Test A postemergence; details: Galium, post-emergence, 240 h; for pest or weed control at 125 g/ha: 125 g ai/ha, postemergence, visual injury on 0 to 100 scale (0 no effect, 100 complete control), approx. 10 d, read-out: Galium plant response rating; for pest or weed control at 31 g/ha: Postemergence, 31 g ai/ha, visual injury after approx. 10 d, 0 to 100 scale, 0 no effect, 100 complete control, read-out: Plant response rating, Galium
Summary of the method: as §2

[10] = tested on: ryegrass, Italian (Italian ryegrass, Lolium multiflorum); experiment: Test A postemergence; details: Lolium multiflorum, post-emergence, 240 h; for pest or weed control at 125 g/ha: 125 g ai/ha, postemergence, visual injury on 0 to 100 scale (0 no effect, 100 complete control), approx. 10 d, read-out: Ryegrass, Italian plant response rating; for pest or weed control at 31 g/ha: Postemergence, 31 g ai/ha, visual injury after approx. 10 d, 0 to 100 scale, 0 no effect, 100 complete control, read-out: Plant response rating, Ryegrass, Italian
Summary of the method: as §2

[11] = tested on: ragweed (common ragweed, Ambrosia elatior); experiment: Test A postemergence; details: Ambrosia artemisiifolia, post-emergence, 240 h; for pest or weed control at 125 g/ha: 125 g ai/ha, postemergence, visual injury on 0 to 100 scale (0 no effect, 100 complete control), approx. 10 d, read-out: Ragweed plant response rating; for pest or weed control at 31 g/ha: Postemergence, 31 g ai/ha, visual injury after approx. 10 d, 0 to 100 scale, 0 no effect, 100 complete control, read-out: Plant response rating, Ragweed
Summary of the method: as §2

[12] = tested on: barnyardgrass (Echinochloa crus-galli); experiment: Test A postemergence; details: Echinochloa crus-galli, post-emergence, 240 h; for pest or weed control at 125 g/ha: 125 g ai/ha, postemergence, visual injury on 0 to 100 scale (0 no effect, 100 complete control), approx. 10 d, read-out: Barnyardgrass plant response rating; for pest or weed control at 31 g/ha: Postemergence, 31 g ai/ha, visual injury after approx. 10 d, 0 to 100 scale, 0 no effect, 100 complete control, read-out: Plant response rating, Barnyardgrass
Summary of the method: as §2

[13] = tested on: pigweed (Amaranthus retroflexus); experiment: Test A preemergence; details: Amaranthus retroflexus, pre-emergence, 240 h, 0 to 100 scale where 0 is no effect and 100 is complete control, read-out: Pigweed plant response rating; for pest or weed control at 31 g/ha: 31 g ai/ha, Preemergence; for pest or weed control at 125 g/ha: 125 g ai/ha, preemergence, approx. 10 d
[14] = tested on: giant foxtail (Setaria faberii); experiment: Test A preemergence; details: Setaria faberi, pre-emergence, 240 h, 0 to 100 scale where 0 is no effect and 100 is complete control, read-out: Foxtail, Giant plant response rating; for pest or weed control at 31 g/ha: 31 g ai/ha, Preemergence; for pest or weed control at 125 g/ha: 125 g ai/ha, preemergence, approx. 10 d
Summary of the method: as §2

Kochia (Kochia scoparia) [15] = experiment: Test A preemergence; details: Bassia scoparia, pre-emergence, 240 h, 0 to 100 scale where 0 is no effect and 100 is complete control, read-out: Kochia plant response rating; for pest or weed control at 31 g/ha: 31 g ai/ha, Preemergence; for pest or weed control at 125 g/ha: 125 g ai/ha, preemergence, approx. 10 d
Summary of the method: as §2

[16] = tested on: ryegrass, Italian (Italian ryegrass, Lolium multiflorum); experiment: Test A preemergence; details: Lolium multiflorum, pre-emergence, 240 h, 0 to 100 scale where 0 is no effect and 100 is complete control, read-out: Ryegrass, Italian plant response rating; for pest or weed control at 31 g/ha: 31 g ai/ha, Preemergence; for pest or weed control at 125 g/ha: 125 g ai/ha, preemergence, approx. 10 d
Summary of the method: as §2

[17] = tested on: ragweed (common ragweed, Ambrosia elatior); experiment: Test A preemergence; details: Ambrosia artemisiifolia, pre-emergence, 240 h, 0 to 100 scale where 0 is no effect and 100 is complete control, read-out: Ragweed plant response rating; for pest or weed control at 31 g/ha: 31 g ai/ha, Preemergence; for pest or weed control at 125 g/ha: 125 g ai/ha, preemergence, approx. 10 d
Summary of the method: as §2

[18] = tested on: barnyardgrass (Echinochloa crus-galli); experiment: Test A preemergence; details: Echinochloa crus-galli, pre-emergence, 240 h, 0 to 100 scale where 0 is no effect and 100 is complete control, read-out: Barnyardgrass plant response rating; for pest or weed control at 31 g/ha: 31 g ai/ha, Preemergence; for pest or weed control at 125 g/ha: 125 g ai/ha, preemergence, approx. 10 d
Summary of the method: as §2

Structure (SMILES)	pest or weed control at 250 g/ha [1] [%]	pest or weed control at 250 g/ha (rice (Oryra sativa)) [%]	pest or weed control at 250 g/ha [2] [%]	pest or weed control at 250 g/ha [3] [%]	plant injury at 125 g/ha [4] [%]	plant injury at 31 g/ha [4] [%]	plant injury at 125 g/ha (corn (Zea mays)) [%]	Corn plant response rating (crop injury, 0 = no effect, 100 = complete kill) at 31 g/ha (corn (Zea mays)) [%]	pest or weed control at 125 g/ha [5] [%]	pest or weed control at 31 g/ha [5] [%]	pest or weed control at 125 g/ha [6] [%]	pest or weed control at 31 g/ha [6] [%]	pest or weed control at 125 g/ha [7] [%]	pest or weed control at 31 g/ha [7] [%]	pest or weed control at 125 g/ha (Kochia (Kochia scoparia) [8]) [%]	pest or weed control at 31 g/ha (Kochia (Kochia scoparia) [8]) [%]	pest or weed control at 125 g/ha [9] [%]	pest or weed control at 31 g/ha [9] [%]	pest or weed control at 125 g/ha [10] [%]	pest or weed control at 31 g/ha [10] [%]	further results
CN1C[C@H](c2cc(C(F)F)cs2)[C@@H](C(=O)Nc2ccc(F)c(F)c2F)C1=O [Compound 1083]	0	40	95	90	40	40	40	20	60	50	20	0	90	80	40	20	70	60	20	0	pest or weed control at 125 g/ha [11]: 30%; pest or weed control at 31 g/ha [11]: 0%; pest or weed control at 125 g/ha [12]: 90%; pest or weed control at 31 g/ha [12]: 90%; pest or weed control at 31 g/ha [13]: 0%; pest or weed control at 125 g/ha [13]: 20%; pest or weed control at 31 g/ha [14]: 100%; pest or weed control at 125 g/ha [14]: 100%; pest or weed control at 31 g/ha (Kochia (Kochia scoparia) [15]): 20%; pest or weed control at 125 g/ha (Kochia (Kochia scoparia) [15]): 90%; pest or weed control at 31 g/ha [16]: 20%; pest or weed control at 125 g/ha [16]: 60%; pest or weed control at 31 g/ha [17]: 0%; pest or weed control at 125 g/ha [17]: 80%; pest or weed control at 31 g/ha [18]: 90%; pest or weed control at 125 g/ha [18]: 100%
CN1C[C@H](c2cc(C(F)F)cs2)[C@@H](C(=O)Nc2ccccc2S(C)(=O)=O)C1=O [Compound 1084]	0	20	100	75	20	0	0	0	20	0	0	0	50	0	30	0	0	0	0	0	pest or weed control at 125 g/ha [11]: 0%; pest or weed control at 31 g/ha [11]: 0%; pest or weed control at 125 g/ha [12]: 60%; pest or weed control at 31 g/ha [12]: 10%; pest or weed control at 31 g/ha [13]: 0%; pest or weed control at 125 g/ha [13]: 0%; pest or weed control at 31 g/ha [14]: 30%; pest or weed control at 125 g/ha [14]: 100%; pest or weed control at 31 g/ha (Kochia (Kochia scoparia) [15]): 0%; pest or weed control at 125 g/ha (Kochia (Kochia scoparia) [15]): 20%; pest or weed control at 31 g/ha [16]: 0%; pest or weed control at 125 g/ha [16]: 10%; pest or weed control at 31 g/ha [17]: 0%; pest or weed control at 125 g/ha [17]: 10%; pest or weed control at 31 g/ha [18]: 0%; pest or weed control at 125 g/ha [18]: 70%
